As a reminder, the EC50 is the concentration at which the effect is half-maximal. High values mean a need for much substance, low ones an effect from little substance. The term pEC50 denotes the EC50 on a negative log10 scale, so that one unit is a factor of ten.

Experiment [1] relates to isolated mouse pancreatic islets. As to the kind of experiment: Somatostatin secretion in isolated mouse islets (RIA). Format: cell-based. The following applies: 10–10,000 pmol/l, 1 mmol/l glucose. The procedure:
Mouse islets were used acutely, except for studies with PTX, wherein islets were treated overnight with the toxin. Human islets were maintained in culture for up to 48 h in RPMI medium containing 10% (vol./vol.) FCS, 1% (vol./vol.) penicillin/streptomycin and 5 mmol/l glucose. Experiments were conducted as previously described. Islets were incubated in 0.3 ml EC1 or EC2 media (ESM Table 2) supplemented with glucose and other reagents as indicated. Glucagon was determined by ELISA (Mercodia).
Insulin and somatostatin were determined by RIA (Millipore and Diasource ImmunoAssays, respectively) as described previously. In these experiments, rates of release are expressed as % of contents unless otherwise indicated.

Experiment [2] addresses T1, human GCGR expressed in HEK293T cells (Homo sapiens, UniProt P47871).
T1 construct: expressed in transfected cells; host or cells: HEK293T (ATCC CRL-3216)
As to the kind of experiment: G protein dissociation (TRUPATH BRET2 biosensor). Format: cell-based. The procedure: G protein dissociation was measured using the TRUPATH biosensor platform. TRUPATH constructs were obtained from Addgene (kit no. 1000000163 [21]). […] Cells were transfected with equal amounts of GCGR, GαsS-, Gαi1-, Gαi2-, Gαi3-, GαoA-, GαoB- or Gαz-Rluc8, Gβ3, and Gγ1-, Gγ8- or Gγ9-GFP2 (as described in [21]), and pcDNA3.1(‑) using polyethyleneimine (ESM Table 3). After 24 h, cells were seeded at 50,000 cells/well of a 0.01% poly-L-lysine-coated white 96-well plate (Greiner) and grown overnight. Cells were washed with Hanks’ Balanced Salt Solution (Lonza) buffered with 20 mmol/l HEPES (Sigma) and supplemented with 0.1% BSA (Sigma) (wt/vol.). Cells were incubated in 5 μmol/l coelenterazine 400a (Nanolight Technologies) for 5 min. […] The bioluminescence resonance energy transfer 2 (BRET2) ratio was calculated (λ515/λ400) and the time point corresponding to maximal dissociation was used to generate dose–response curves. pEC50 values were calculated using the ‘three parameter log(agonist) vs response’ model in GraphPad Prism9 (version 9.1.0; graphpad.com).
For orientation: BRET reads energy transfer from a luciferase to a nearby fluorophore.

For a further experiment, the system named is P/Q-type Ca^2+ channels. As to the kind of experiment: [Ca2+]i imaging of depolarisation-evoked Ca2+ entry in alpha cells (Gcg-GCaMP6f islets). Format: cell-based, mouse. The following applies: 10 pmol/l, 70 mmol/l [K+]o, isradipine 10 μmol/l; n=139 cells from 4 mice. The procedure: For live-cell cytoplasmic free Ca^2+ concentration ([Ca^2+]i) imaging experiments, Gcg-GCaMP6f islets were immobilised to a poly-L-lysine-coated coverslip fixed in a custom-built imaging chamber filled with EC3 (ESM Table 2). [Ca^2+]i was measured in islets from mice expressing GCaMP6f in alpha cells. [Ca^2+]i imaging experiments were then performed using an inverted LSM 510 confocal microscope (Zeiss) controlled with ZEN Black (Zeiss), using a ×40/1.3 oil immersion objective. Time-lapse images were collected every 0.98 s with a frame size of 256×256 pixels, with the bath solution (EC3) perfused at a rate of 0.4 ml/min and heated to 37°C. GCaMP6f was excited by an argon laser (488 nm) and emission was collected at 510 nm.
[Ca^2+]i imaging videos were analysed using the Fiji imaging processing package. The mean fluorescence (F) of each region of interest was normalised to baseline signal (F0) and expressed as F/F0 before exporting into ClampFit (version 10.7; Molecular Devices, CA, USA), where baseline was corrected and AUC was calculated.

T1 sequence (P47871 26-477): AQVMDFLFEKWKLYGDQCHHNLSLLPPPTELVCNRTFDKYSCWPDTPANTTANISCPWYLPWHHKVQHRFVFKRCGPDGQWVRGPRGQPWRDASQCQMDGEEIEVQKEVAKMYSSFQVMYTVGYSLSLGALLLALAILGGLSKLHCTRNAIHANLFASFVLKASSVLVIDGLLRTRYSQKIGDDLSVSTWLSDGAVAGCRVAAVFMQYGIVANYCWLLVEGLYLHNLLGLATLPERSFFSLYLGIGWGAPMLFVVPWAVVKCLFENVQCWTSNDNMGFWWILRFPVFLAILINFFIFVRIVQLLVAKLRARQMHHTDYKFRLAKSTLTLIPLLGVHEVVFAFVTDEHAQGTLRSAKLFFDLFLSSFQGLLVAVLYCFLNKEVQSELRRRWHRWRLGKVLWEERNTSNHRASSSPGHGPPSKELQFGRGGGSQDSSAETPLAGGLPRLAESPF

Turning to `CC[C@H](C)[C@H](NC(=O)[C@H](Cc1ccccc1)NC(=O)[C@H](CCC(=O)O)NC(=O)[C@H](CCCCN)NC(=O)[C@H](C)NC(=O)[C@H](C)NC(=O)[C@H](CCC(N)=O)NC(=O)CNC(=O)[C@H](CCC(=O)O)NC(=O)[C@H](CC(C)C)NC(=O)[C@H](Cc1ccc(O)cc1)NC(=O)[C@H](CO)NC(=O)[C@H](CO)NC(=O)[C@@H](NC(=O)[C@H](CC(=O)O)NC(=O)[C@H](CO)NC(=O)[C@@H](NC(=O)[C@H](Cc1ccccc1)NC(=O)[C@@H](NC(=O)CNC(=O)[C@@H](N)CCC(=O)O)[C@@H](C)O)[C@@H](C)O)C(C)C)C(=O)N[C@@H](C)C(=O)N[C@@H](Cc1c[nH]c2ccccc12)C(=O)N[C@@H](CC(C)C)C(=O)N[C@H](C(=O)N[C@@H](CCCCN)C(=O)NCC(=O)N[C@@H](CCCNC(=N)N)C(N)=O)C(C)C` [GLP-1(9–36)], in experiment [1], the “effect on somatostatin secretion” value is reported as “No stimulatory effects”. Also, the “efficacy of GoA dissociation relative to glucagon” value in experiment [2] (GCGR, GoA, HEK293T) is listed as ~ 10%. In experiment [2] (Gα i2, mean ± S.E.M.), this molecule gave an EC50 of 501 nM. In addition, the pEC50 in experiment [2] (Gα oA, mean ± S.E.M.) worked out at 7.55±-0.52. Moreover, the “reduction of depolarisation-induced P/Q-type Ca2+ channel-mediated Ca2+ entry” value with P/Q-type Ca^2+ channels is 34±4%.

(Values after paper PMC10844371 (Diabetologia, 2023).)
